Results as given in ChEMBL document CHEMBL4402529, “Immunoproteasome-selective inhibitors: An overview of recent developments as potential drugs for hematologic malignancies and autoimmune diseases” (Eur J Med Chem, 2019).

Legend:
[1] = biological target: T1, Proteasome subunit beta type-9 (Homo sapiens, UniProt P28065); experiment: Inhibition of 20S proteasome beta 1i (unknown origin) after 1 hr by fluorescence based assay
T1 sequence (P28065 whole entry): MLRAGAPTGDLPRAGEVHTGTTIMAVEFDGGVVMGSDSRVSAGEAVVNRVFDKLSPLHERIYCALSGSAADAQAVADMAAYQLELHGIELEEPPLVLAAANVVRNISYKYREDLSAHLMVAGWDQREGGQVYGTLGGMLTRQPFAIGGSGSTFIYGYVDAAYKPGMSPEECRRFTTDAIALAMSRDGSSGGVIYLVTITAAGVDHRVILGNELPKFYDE

[2] = biological target: T2, Proteasome subunit beta type-10 (Homo sapiens, UniProt P40306); experiment: Inhibition of 20S proteasome beta 2i (unknown origin) after 1 hr by fluorescence based assay
T2 sequence (P40306 whole entry): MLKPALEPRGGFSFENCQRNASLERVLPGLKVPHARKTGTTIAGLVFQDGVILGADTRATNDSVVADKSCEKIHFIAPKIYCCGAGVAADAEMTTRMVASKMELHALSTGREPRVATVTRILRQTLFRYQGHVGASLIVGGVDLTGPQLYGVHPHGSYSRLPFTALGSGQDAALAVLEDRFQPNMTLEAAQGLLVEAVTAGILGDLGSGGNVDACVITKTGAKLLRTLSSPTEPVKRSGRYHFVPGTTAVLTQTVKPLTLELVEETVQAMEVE

[3] = biological target: T3, Proteasome Macropain subunit MB1 (Homo sapiens, UniProt P28074); experiment: Inhibition of 20S proteasome beta 5c (unknown origin) after 1 hr by fluorescence based assay
T3 sequence (P28074 whole entry): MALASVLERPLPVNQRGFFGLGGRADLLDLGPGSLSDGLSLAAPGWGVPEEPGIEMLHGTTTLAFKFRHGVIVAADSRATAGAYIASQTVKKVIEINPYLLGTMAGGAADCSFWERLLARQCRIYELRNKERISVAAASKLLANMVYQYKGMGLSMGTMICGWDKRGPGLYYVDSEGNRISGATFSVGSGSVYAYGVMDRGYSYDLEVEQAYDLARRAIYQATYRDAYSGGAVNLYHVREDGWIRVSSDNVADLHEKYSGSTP

[4] = biological target: T4, Proteasome subunit beta type-8 (Homo sapiens, UniProt P28062); experiment: Inhibition of 20S proteasome beta 5i (unknown origin) after 1 hr by fluorescence based assay
T4 sequence (P28062 whole entry): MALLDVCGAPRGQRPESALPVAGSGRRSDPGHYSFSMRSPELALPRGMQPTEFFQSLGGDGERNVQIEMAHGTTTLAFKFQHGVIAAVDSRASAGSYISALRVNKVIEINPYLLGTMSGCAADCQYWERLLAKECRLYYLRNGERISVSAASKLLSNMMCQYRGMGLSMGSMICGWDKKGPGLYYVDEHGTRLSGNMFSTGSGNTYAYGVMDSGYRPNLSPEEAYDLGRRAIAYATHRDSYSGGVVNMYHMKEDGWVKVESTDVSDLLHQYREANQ

[5] = species: Homo sapiens; experiment: Selectivity index, ratio of IC50 for 20S proteasome beta 5c (unknown origin) to IC50 for 20S proteasome beta 5i (unknown origin)
[6] = biological target: T3, Proteasome Macropain subunit MB1; experiment: Inhibition of 20S proteasome beta 5c (unknown origin) after 1 hr by cell based assay
[7] = biological target: T4, Proteasome subunit beta type-8; experiment: Inhibition of 20S proteasome beta 5i (unknown origin) after 1 hr by cell based assay
[8] = species: Homo sapiens; experiment: Selectivity index, ratio of IC50 for human 20S proteasome beta 5c to IC50 for human 20S proteasome beta 5i
[9] = biological target: T4, Proteasome subunit beta type-8; experiment: Inhibition of human 20S proteasome beta 5i
[10] = biological target: T3, Proteasome Macropain subunit MB1; experiment: Inhibition of human 20S proteasome beta 5c
[11] = species: Homo sapiens; experiment: Selectivity index, ratio of IC50 for 20S proteasome beta 2c (unknown origin) to IC50 for 20S proteasome beta 2i (unknown origin)
[12] = species: Homo sapiens; experiment: Selectivity index, ratio of IC50 for 20S proteasome beta 1c (unknown origin) to IC50 for 20S proteasome beta 1i (unknown origin)
[13] = biological target: T1, Proteasome subunit beta type-9; experiment: Inhibition of 20S proteasome beta 1i (unknown origin)
[14] = Inhibition of 20S proteasome beta 2c (unknown origin)

CC(C)C[C@H](NC(=O)[C@@H](NC(=O)c1cccc(-c2ccccc2)n1)[C@@H](C)O)B(O)O [DELANZOMIB]
IC50 [1]: 1 to 3 nM | IC50 [2]: 10 to 30 nM | IC50 [3]: 3 to 20 nM | IC50 [4]: 3 to 20 nM

C[C@@H](CC(=O)NCc1cccc2ccccc12)NC(=O)[C@H](CC(=O)NC(C)(C)C)NC(=O)CCc1ccccc1
Ratio IC50 [5]: 1330 | IC50 [6]: 76000 nM | IC50 [7]: 57 nM

Cc1c(Cc2nsc(=O)o2)c(=O)oc2cc3occ(-c4ccccc4)c3cc12
Ratio IC50 [8]: > 80 | IC50 [9]: 120 nM

Cc1c(CCC(=O)ON2C(=O)CCC2=O)c(=O)oc2cc3occ(-c4ccccc4)c3cc12
Ratio IC50 [8]: 24 | IC50 [9]: 9 nM | IC50 [10]: 220 nM

Cc1ccc(S(=O)(=O)N[C@@H](CC(=O)NC(C)(C)C)C(=O)N[C@@H](C)CC(=O)NCc2cccc3ccccc23)cc1
Ratio IC50 [5]: 13600 | IC50 [6]: 74900 nM | IC50 [7]: 5.5 nM

Cc1c(C2CCCC2)c(=O)oc2cc3occ(-c4ccccc4)c3cc12
Ratio IC50 [8]: 83 | IC50 [9]: 13 nM | IC50 [10]: 1070 nM

COc1ccc([C@@H](O)[C@H](NC(=O)[C@H](C)NC(=O)CN2CCOCC2)C(=O)N[C@@H](CC2=CCCC2)C(=O)[C@@]2(C)CO2)cc1 [ZETOMIPZOMIB]
Ratio IC50 [5]: 17.6 | Ratio IC50 [11]: > 80.9 | IC50 [3]: 688 nM | IC50 [4]: 39 nM | Ratio IC50 [12]: 0.97

Cc1ccc(S(=O)(=O)N[C@H](CC(=O)N[C@@H](C)C(=O)NCc2cccc3ccccc23)CC(=O)NC(C)(C)C)cc1
Ratio IC50 [5]: 5600 | IC50 [6]: 78200 nM | IC50 [7]: 14 nM

Cc1c(CCC(=O)O)c(=O)oc2cc3occ(-c4ccccc4)c3cc12
Ratio IC50 [8]: 108 | IC50 [9]: 1600 nM | IC50 [10]: 172000 nM

Cc1ccc(S(=O)(=O)N[C@@H](CC(=O)NC(C)(C)C)C(=O)NCCNC(=O)c2cc(-c3ccccc3F)ccc2F)cc1
Ratio IC50 [5]: 28

CC(C)(C)NC(=O)C[C@H](NS(=O)(=O)C1CC1)C(=O)NCCNC(=O)c1cc(-c2ccccc2F)ccc1F
Ratio IC50 [5]: 64

CC(C)C[C@H](NC(=O)CN1CCCCCC1)C(=O)N[C@@H](Cc1ccccc1)C(=O)N[C@@H](Cc1ccccc1)C(=O)[C@@]1(C)CO1
IC50 [13]: 425 nM | Ratio IC50 [5]: 0.8 | IC50 [14]: 81 nM | Ratio IC50 [12]: > 602

COc1ccc(C[C@H](NC(=O)[C@@H](C)NC(=O)[C@H]2CC[C@H](O)CC2)C(=O)N[C@@H](CC2=CCCC2)C(=O)[C@@]2(C)CO2)cc1
Ratio IC50 [5]: 79 | Ratio IC50 [12]: > 14
